Literature values, collected in PubChem BioAssay AID1259410 (Chemical Carcinogenesis Research Information System (CCRIS), 2018).

Tested on: rodent tumor promotion studies, tumor incidence
Test: CCRIS tumor promotion studies

CCC(=O)O[C@H]1CC[C@H]2[C@@H]3CCC4=CC(=O)CC[C@]4(C)[C@H]3CC[C@]12C
outcome (Carcinogen: 3,2'-DIMETHYL-4-AMINOBIPHENYL, 13394-86-0, Doses [Carcinogen]: 50 MG/KG 1/2 WK FOR 20 WK, Doses [Promoter]: CONTINUOUS ADMINISTRATION TO CASTRATED RATS FOR 40 WK, IMPLANTS REPLACED AT 6-WK INTERVALS (STUDY DURATION: 60 WK), Route [Carcinogen]: SUBCUTANEOUS, Route [Promoter]: SUBCUTANEOUS IMPLANT, Species: RAT, Strain/Sex: F344/MALE): prostate: carcinoma; seminal vesicle: carcinoma
outcome (Carcinogen: 3,2'-DIMETHYL-4-AMINOBIPHENYL, 13394-86-0, Doses [Carcinogen]: 50 MG/KG 1/2 WK FOR A TOTAL OF 10 INJECTIONS, Doses [Promoter]: 0, 40 MG IN SILASTIC TUBES IMPLANTED 1 WK PRIOR TO CARCINOGEN TREATMENT AND CONTINUING FOR DURATION OF STUDY WITH REPLAC, Route [Carcinogen]: SUBCUTANEOUS, Route [Promoter]: SUBCUTANEOUS IMPLANT, Species: RAT, Strain/Sex: F344/MALE): dorsolateral prostate: carcinoma; seminal vesicle: carcinoma
outcome (Carcinogen: 3,2'-DIMETHYL-4-AMINOBIPHENYL, 13394-86-0, Doses [Carcinogen]: 50 MG/KG 1/2 WK FOR A TOTAL OF 10 INJECTIONS, Doses [Promoter]: 0, 100 MG/KG 1/D FOR 3 D PRECEDING EACH CARCINOGEN DOSE (STUDY DURATION: 56 WK), Route [Carcinogen]: SUBCUTANEOUS, Route [Promoter]: SUBCUTANEOUS, Species: RAT, Strain/Sex: F344/MALE): skin/subcutis: tumor
outcome (Carcinogen: 3,2'-DIMETHYL-4-AMINOBIPHENYL, 13394-86-0, Doses [Carcinogen]: 50 MG/KG 1/2 WK FOR A TOTAL OF 10 INJECTIONS, Doses [Promoter]: 0, 100 MG/KG 1/D FOR 3 D PRECEDING EACH CARCINOGEN DOSE THEN 0, 40 MG IN SILASTIC TUBES IMPLANTED POST LAST CARCINOGEN D, Doses [Promoter]: 0, 100 MG/KG 1/D FOR 3 D PRECEDING EACH CARCINOGEN DOSE THEN 0, 40 MG IN SILASTIC TUBES IMPLANTED POST LAST CARCINOGEN D, Route [Carcinogen]: SUBCUTANEOUS, Route [Promoter]: SUBCUTANEOUS, Species: RAT, Strain/Sex: F344/MALE): dorsolateral prostate: carcinoma; seminal vesicles: carcinoma
outcome (Carcinogen: 3,2'-DIMETHYL-4-AMINOBIPHENYL, 13394-86-0, Doses [Carcinogen]: 50 MG/KG BW 1/2 WK FOR 10 DOSES, Doses [Promoter]: 20, 40 MG/SILASTIC TUBE IMPLANT REPLACED AT 6 WK INTERVALS (STUDY DURATION: 60 WK), Route [Carcinogen]: SUBCUTANEOUS, Route [Promoter]: SUBCUTANEOUS, Species: RAT, Strain/Sex: F344/MALE): prostate (anterior): carcinoma; seminal vesicles: carcinoma
outcome (Carcinogen: 3,2'-DIMETHYL-4-AMINOBIPHENYL, 58109-32-3, Doses [Carcinogen]: 50 MG/KG BW 1/2 WK FOR 20 WK, Doses [Promoter]: 0, 40 MG BEGINNING POST CARCINOGEN TREATMENT AND RENEWED AT 6 WK INTERVALS FOR 40 WK (STUDY DURATION: 60 WK), Route [Carcinogen]: SUBCUTANEOUS, Route [Promoter]: SUBCUTANEOUS IMPLANT, Species: RAT, Strain/Sex: F344/MALE): seminal vesicles: carcinoma
outcome (Carcinogen: 17 BETA-ESTRADIOL [50-28-2], Doses [Carcinogen]: 22 MG AT 3 MO OF AGE ONCE/3 MO FOR 1 YR, Doses [Promoter]: 0, 60 MG AT 3 MO OF AGE ONCE/3 MO FOR 1 YR (STUDY DURATION: 1 YR), Route [Carcinogen]: SUBCUTANEOUS IMPLANT, Route [Promoter]: SUBCUTANEOUS IMPLANT, Species: RAT, Strain/Sex: NOBLE/FEMALE (?,18)/(?/15)): mammary gland: tumor
outcome (Carcinogen: 17 BETA-ESTRADIOL, 50-28-2, Doses [Carcinogen]: 22 MG AT 3 MO OF AGE ONCE EVERY 3 MO FOR 1 YR, Doses [Promoter]: 0, 120 MG AT 3 MO OF AGE, 1/3 MO FOR 1 YR (STUDY DURATION: 1 YR), Route [Carcinogen]: SUBCUTANEOUS IMPLANT, Route [Promoter]: SUBCUTANEOUS IMPLANT, Species: RAT, Strain/Sex: NOBLE/FEMALE): mammary gland: tumor
outcome (Carcinogen: N-BUTYL-N-(4-HYDROXYBUTYL)NITROSAMINE [3817-11-6], Doses [Carcinogen]: 0.05% IN DRINKING WATER FOR 18 WK (STUDY DURATION: 18 WK), Doses [Promoter]: 0, 3 MG/KG BW FOR 18 WK (STUDY DURATION: 18 WK), Route [Carcinogen]: ORAL, Route [Promoter]: INTRAMUSCULAR, Species: MOUSE, Strain/Sex: C57B6/6/MALE): urinary bladder: tumor
outcome (Carcinogen: N-METHYL-N-NITROSOUREA, 684-93-5, Doses [Carcinogen]: 30 MG/KG BW ONCE, Doses [Promoter]: 0, 25 MG IMPLANT CHANGED AT 2 MO INTERVALS FOR A TOTAL OF 3 TIMES (STUDY DURATION: 14 MO), Route [Carcinogen]: INTRAVENOUS, Route [Promoter]: SUBCUTANEOUS IMPLANT, Species: RAT, Strain/Sex: LOBUND-WISTAR/MALE): prostate/seminal vesicles: tumor
outcome (Carcinogen: N-METHYL-N-NITROSOUREA, 684-93-5, Doses [Carcinogen]: 30 MG/KG ONCE, Doses [Promoter]: 0, 50 MG IN SILASTIC MEMBRANE IMPLANT BEGINNING 1 MO POST CARCINOGEN DOSE AND REPEATED AT INTERVALS OF 2 MO FOR A TOTAL, Route [Carcinogen]: INTRAVENOUS, Route [Promoter]: SUBCUTANEOUS IMPLANT, Species: RAT, Strain/Sex: LOBUND-WISTAR/MALE): prostate: adenocarcinoma
outcome (Carcinogen: N-METHYL-N-NITROSOUREA, 684-93-5, Doses [Carcinogen]: 30 MG/KG ONCE, Doses [Promoter]: 0, 50 MG IN SILASTIC MEMBRANE IMPLANT BEGINNING 1 WK POST CARCINOGEN DOSE AND REPEATED AT INTERVALS OF 2 MO FOR A TOTAL, Route [Carcinogen]: INTRAVENOUS, Route [Promoter]: SUBCUTANEOUS IMPLANT, Species: RAT, Strain/Sex: LOBUND-WISTAR/MALE): prostate: adenocarcinoma
outcome (Carcinogen: N-METHYL-N-NITROSOUREA, 684-93-5, Doses [Carcinogen]: 30 MG/KG ONCE, Doses [Promoter]: 0, 50 MG IN SILASTIC MEMBRANE IMPLANT BEGINNING 1 WK POST CARCINOGEN DOSE FOLLOWED BY SECOND IMPLANT 2 MO LATER (STUDY D, Route [Carcinogen]: INTRAVENOUS, Route [Promoter]: SUBCUTANEOUS IMPLANT, Species: RAT, Strain/Sex: LOBUND-WISTAR/MALE): prostate: adenocarcinoma
outcome (Carcinogen: N-METHYL-N-NITROSOUREA, 684-93-5, Doses [Carcinogen]: 30 MG/KG ONCE, Doses [Promoter]: 0, 50 MG IN SILASTIC MEMBRANE IMPLANT BEGINNING 2 MO POST CARCINOGEN DOSE AND REPEATED AT INTERVALS OF 2 MO FOR A TOTAL, Route [Carcinogen]: INTRAVENOUS, Route [Promoter]: SUBCUTANEOUS IMPLANT, Species: RAT, Strain/Sex: LOBUND-WISTAR/MALE): prostate: adenocarcinoma
outcome (Carcinogen: N-METHYLNITROSOUREA, 684-93-5, Doses [Carcinogen]: 15 MG/KG/BW 1/4 WK FOR 5 INJECTIONS EACH FOLLOWING 2 WK PRETREATMENT WITH DIETARY ETHINYL ESTRADIOL, Doses [Promoter]: 0, 40 MG IMPLANTS REPLACED AT 6 WK INTERVALS FOR 40 WK IN RATS MAINTAINED ON DIETS WITH OR WITHOUT HIGH FAT CONTENT (20%, Route [Carcinogen]: INTRAVENOUS, Route [Promoter]: SUBCUTANEOUS IMPLANT, Species: RAT, Strain/Sex: F344/MALE): seminal vesicles: carcinoma; congulating glands: carcinoma
outcome (Carcinogen: N-NITROSOBIS(2-OXOPROPYL)AMINE, 60599-38-4, Doses [Carcinogen]: 20 MG/KG 1/4 WK FOR 5 INJECTIONS EACH FOLLOWING 2 WK PRETREATMENT WITH DIETARY ETHINYL ESTRADIOL, Doses [Promoter]: 0, 40 MG IMPLANTS REPLACED AT 6 WK INTERVALS FOR 40 WK IN RATS MAINTAINED ON DIETS WITH OR WITHOUT HIGH FAT CONTENT (20%, Route [Carcinogen]: SUBCUTANEOUS, Route [Promoter]: SUBCUTANEOUS IMPLANT, Species: RAT, Strain/Sex: F344/MALE): seminal vesicles: carcinoma

O=C(O)C(Cl)Cl
outcome (Carcinogen: N-METHYL-N-NITROSOUREA, 684-93-5, Doses [Carcinogen]: 25 MG/KG IN STERILE SALINE ONCE, Doses [Promoter]: 0, 25 MMOL/L IN DRINKING WATER FOR 44 WK BEGINNING 2 WK POST CARCINOGEN DOSE (STUDY DURATION: 46 WK), Route [Carcinogen]: INTRAPERITONEAL, Route [Promoter]: ORAL, Species: MOUSE, Strain/Sex: B6C3F1/FEMALE): liver: adenoma
outcome (Carcinogen: N-METHYL-N-NITROSOUREA, 684-93-5, Doses [Carcinogen]: 25 MG/KG ONCE AT 15 D OF AGE, Doses [Promoter]: 0, 20 NMOL/L IN DRINKING WATER FOR 31 WK BEGINNING AT 7 WK OF AGE (STUDY DURATION: 31 WK), Route [Carcinogen]: INTRAPERITONEAL, Route [Promoter]: ORAL, Species: MOUSE, Strain/Sex: B6C3F1/FEMALE): liver: adenoma
outcome (Carcinogen: N-METHYL-N-NITROSOUREA, 684-93-5, Doses [Carcinogen]: 25 MG/KG ONCE AT 15 D OF AGE, Doses [Promoter]: 0, 20 NMOL/L IN DRINKING WATER FOR 52 WK BEGINNING AT 7 WK OF AGE (STUDY DURATION: 52 WK), Route [Carcinogen]: INTRAPERITONEAL, Route [Promoter]: ORAL, Species: MOUSE, Strain/Sex: B6C3F1/FEMALE): liver: adenoma

Oc1ccc(Cl)cc1Cl
outcome (Carcinogen: 7,12-DIMETHYLBENZ(A)ANTHRACENE, Doses [Carcinogen]: TOP, Route [Carcinogen]: DERMAL, Route [Promoter]: DERMAL, Species: MOUSE, Strain/Sex: FEMALE): integumentary system (skin)

C=C(C)[C@]12C[C@@H](C)[C@@]34O[C@](CCCCCCCCC)(O[C@@H]1[C@@H]3[C@@H]1O[C@]1(CO)[C@@H](O)[C@]1(O)C(=O)C(C)=C[C@H]14)O2
outcome (Carcinogen: 7,12-DIMETHYLBENZ(A)ANTHRACENE, Doses [Carcinogen]: 100 NMOL ONCE, Doses [Promoter]: 10, 20 NMOL 2/WK FOR 24 WK, Route [Carcinogen]: DERMAL, Route [Promoter]: DERMAL, Species: MOUSE, Strain/Sex: NMRI/FEMALE): integumentary system (skin): tumor (nos)
